{"source": "ChEMBL document CHEMBL3797052", "about": "(Eur J Med Chem, 2016)", "assay_type_in_all_cases": "functional", "key": {"[1]": {"assay": "Cytotoxicity against human HCT116 cells assessed as growth inhibition at 100 uM after 2 days by MTT assay", "details": "HCT-116, 48 h, read-out: GI"}, "[2]": {"assay": "Cytotoxicity against human HCT116 cells assessed as growth inhibition at 10 uM after 2 days by MTT assay", "details": "HCT-116, 48 h, read-out: GI"}, "[3]": {"assay": "Cytotoxicity against human SKBR3 cells assessed as growth inhibition at 100 uM after 2 days by MTT assay", "details": "SK-BR-3, 48 h, read-out: GI"}, "[4]": {"assay": "Cytotoxicity against human SKBR3 cells assessed as growth inhibition at 10 uM after 2 days by MTT assay", "details": "SK-BR-3, 48 h, read-out: GI"}, "[5]": {"assay": "Antiproliferative activity against human MOLT4 cells assessed as cell growth at 10^-5 M after 48 hrs by sulforhodamine B assay", "details": "MOLT-4, 48 h, read-out: Activity"}, "SR": {"test_system": "SR", "assay": "Antiproliferative activity against human SR cells assessed as cell growth at 10^-5 M after 48 hrs by sulforhodamine B assay", "details": "read-out: Activity"}, "EKVX": {"test_system": "EKVX", "assay": "Antiproliferative activity against human EKVX cells assessed as cell growth at 10^-5 M after 48 hrs by sulforhodamine B assay", "details": "read-out: Activity"}, "[6]": {"assay": "Antiproliferative activity against human HOP92 cells assessed as cell growth at 10^-5 M after 48 hrs by sulforhodamine B assay", "details": "HOP-92, 48 h, read-out: Activity"}, "NCI-H226": {"test_system": "NCI-H226", "assay": "Antiproliferative activity against human NCI-H226 cells assessed as cell growth at 10^-5 M after 48 hrs by sulforhodamine B assay", "details": "NCI-H226, 48 h, read-out: Activity"}, "NCI-H23": {"test_system": "NCI-H23", "assay": "Antiproliferative activity against human NCI-H23 cells assessed as cell growth at 10^-5 M after 48 hrs by sulforhodamine B assay", "details": "NCI-H23, 48 h, read-out: Activity"}, "NCI-H322M": {"test_system": "NCI-H322M", "assay": "Antiproliferative activity against human NCI-H322M cells assessed as cell growth at 10^-5 M after 48 hrs by sulforhodamine B assay", "details": "read-out: Activity"}, "[7]": {"assay": "Antiproliferative activity against human HCT116 cells assessed as cell growth at 10^-5 M after 48 hrs by sulforhodamine B assay", "details": "HCT-116, 48 h, read-out: Activity"}, "[8]": {"assay": "Antiproliferative activity against human HCT15 cells assessed as cell growth at 10^-5 M after 48 hrs by sulforhodamine B assay", "details": "HCT-15, 48 h, read-out: Activity"}, "KM12": {"test_system": "KM12", "assay": "Antiproliferative activity against human KM12 cells assessed as cell growth at 10^-5 M after 48 hrs by sulforhodamine B assay", "details": "KM12, 48 h, read-out: Activity"}, "[9]": {"assay": "Antiproliferative activity against human SW620 cells assessed as cell growth at 10^-5 M after 48 hrs by sulforhodamine B assay", "details": "SW-620, 48 h, read-out: Activity"}, "[10]": {"assay": "Antiproliferative activity against human SF268 cells assessed as cell growth at 10^-5 M after 48 hrs by sulforhodamine B assay", "details": "SF-268, 48 h, read-out: Activity"}, "[11]": {"assay": "Antiproliferative activity against human SF295 cells assessed as cell growth at 10^-5 M after 48 hrs by sulforhodamine B assay", "details": "SF-295, 48 h, read-out: Activity"}, "[12]": {"assay": "Antiproliferative activity against human SF539 cells assessed as cell growth at 10^-5 M after 48 hrs by sulforhodamine B assay", "details": "SF-539, 48 h, read-out: Activity"}, "[13]": {"assay": "Antiproliferative activity against human SNB19 cells assessed as cell growth at 10^-5 M after 48 hrs by sulforhodamine B assay", "details": "SNB-19, 48 h, read-out: Activity"}, "[14]": {"assay": "Antiproliferative activity against human SNB75 cells assessed as cell growth at 10^-5 M after 48 hrs by sulforhodamine B assay", "details": "SNB-75, 48 h, read-out: Activity"}, "Malme-3M": {"test_system": "Malme-3M", "assay": "Antiproliferative activity against human MALME-3M cells assessed as cell growth at 10^-5 M after 48 hrs by sulforhodamine B assay", "details": "read-out: Activity"}, "M14": {"test_system": "M14", "assay": "Antiproliferative activity against human M14 cells assessed as cell growth at 10^-5 M after 48 hrs by sulforhodamine B assay", "details": "M14, 48 h, read-out: Activity"}, "SK-MEL-28": {"test_system": "SK-MEL-28", "assay": "Antiproliferative activity against human SK-MEL-28 cells assessed as cell growth at 10^-5 M after 48 hrs by sulforhodamine B assay", "details": "SK-MEL-28, 48 h, read-out: Activity"}, "SK-MEL-5": {"test_system": "SK-MEL-5", "assay": "Antiproliferative activity against human SK-MEL-5 cells assessed as cell growth at 10^-5 M after 48 hrs by sulforhodamine B assay", "details": "SK-MEL-5, 48 h, read-out: Activity"}, "[15]": {"assay": "Antiproliferative activity against human UACC257 cells assessed as cell growth at 10^-5 M after 48 hrs by sulforhodamine B assay", "details": "UACC-257, 48 h, read-out: Activity"}, "[16]": {"assay": "Antiproliferative activity against human IGROV1 cells assessed as cell growth at 10^-5 M after 48 hrs by sulforhodamine B assay", "details": "IGROV-1, 48 h, read-out: Activity"}, "[17]": {"assay": "Antiproliferative activity against human OVCAR5 cells assessed as cell growth at 10^-5 M after 48 hrs by sulforhodamine B assay", "details": "OVCAR-5, 48 h, read-out: Activity"}, "786-0": {"test_system": "786-0", "assay": "Antiproliferative activity against human 786-0 cells assessed as cell growth at 10^-5 M after 48 hrs by sulforhodamine B assay", "details": "786-0, 48 h, read-out: Activity"}, "A498": {"test_system": "A498", "assay": "Antiproliferative activity against human A498 cells assessed as cell growth at 10^-5 M after 48 hrs by sulforhodamine B assay", "details": "A498, 48 h, read-out: Activity"}, "ACHN": {"test_system": "ACHN", "assay": "Antiproliferative activity against human ACHN cells assessed as cell growth at 10^-5 M after 48 hrs by sulforhodamine B assay", "details": "read-out: Activity"}, "[18]": {"assay": "Antiproliferative activity against human Caki1 cells assessed as cell growth at 10^-5 M after 48 hrs by sulforhodamine B assay", "details": "CAKI-1, 48 h, read-out: Activity"}, "[19]": {"assay": "Antiproliferative activity against human RXF393 cells assessed as cell growth at 10^-5 M after 48 hrs by sulforhodamine B assay", "details": "RXF 393, 48 h, read-out: Activity"}, "SN12C": {"test_system": "SN12C", "assay": "Antiproliferative activity against human SN12C cells assessed as cell growth at 10^-5 M after 48 hrs by sulforhodamine B assay", "details": "read-out: Activity"}, "[20]": {"assay": "Antiproliferative activity against human DU145 cells assessed as cell growth at 10^-5 M after 48 hrs by sulforhodamine B assay", "details": "DU-145, 48 h, read-out: Activity"}, "MCF7": {"test_system": "MCF7", "assay": "Antiproliferative activity against human MCF7 cells assessed as cell growth at 10^-5 M after 48 hrs by sulforhodamine B assay", "details": "MCF7, 48 h, read-out: Activity"}, "[21]": {"assay": "Antiproliferative activity against human Hs 578T cells assessed as cell growth at 10^-5 M after 48 hrs by sulforhodamine B assay", "details": "read-out: Activity"}, "[22]": {"assay": "Antiproliferative activity against human BT549 cells assessed as cell growth at 10^-5 M after 48 hrs by sulforhodamine B assay", "details": "BT-549, 48 h, read-out: Activity"}, "MDA-MB-468": {"test_system": "MDA-MB-468", "assay": "Antiproliferative activity against human MDA-MB-468 cells assessed as cell growth at 10^-5 M after 48 hrs by sulforhodamine B assay", "details": "MDA-MB-468, 48 h, read-out: Activity"}}}
{"smiles": "CNC(=O)c1cc(Oc2ccc3nc(NC(=O)c4cc(C(F)(F)F)cc(C(F)(F)F)c4)sc3c2)ccn1", "values": [{"measurement": "inhibition of growth at 100 µM", "setting": "[1]", "result": 76.9, "unit": "%"}, {"measurement": "inhibition of growth at 10 µM", "setting": "[2]", "result": 16.8, "unit": "%"}, {"measurement": "inhibition of growth at 100 µM", "setting": "[3]", "result": 80.4, "unit": "%"}, {"measurement": "inhibition of growth at 10 µM", "setting": "[4]", "result": 8.56, "unit": "%"}, {"measurement": "growth at 10 µM", "setting": "[5]", "result": 1, "unit": "%"}, {"measurement": "growth at 10 µM", "setting": "SR", "result": 5, "unit": "%"}, {"measurement": "growth at 10 µM", "setting": "EKVX", "result": 15, "unit": "%"}, {"measurement": "growth at 10 µM", "setting": "[6]", "result": -11, "unit": "%"}, {"measurement": "growth at 10 µM", "setting": "NCI-H226", "result": 19, "unit": "%"}, {"measurement": "growth at 10 µM", "setting": "NCI-H23", "result": 15, "unit": "%"}, {"measurement": "growth at 10 µM", "setting": "NCI-H322M", "result": 18, "unit": "%"}, {"measurement": "growth at 10 µM", "setting": "[7]", "result": 7, "unit": "%"}, {"measurement": "growth at 10 µM", "setting": "[8]", "result": 19, "unit": "%"}, {"measurement": "growth at 10 µM", "setting": "KM12", "result": 2, "unit": "%"}, {"measurement": "growth at 10 µM", "setting": "[9]", "result": 42, "unit": "%"}, {"measurement": "growth at 10 µM", "setting": "[10]", "result": 11, "unit": "%"}, {"measurement": "growth at 10 µM", "setting": "[11]", "result": 1, "unit": "%"}, {"measurement": "growth at 10 µM", "setting": "[12]", "result": 12, "unit": "%"}, {"measurement": "growth at 10 µM", "setting": "[13]", "result": 16, "unit": "%"}, {"measurement": "growth at 10 µM", "setting": "[14]", "result": 10, "unit": "%"}, {"measurement": "growth at 10 µM", "setting": "Malme-3M", "result": -17, "unit": "%"}, {"measurement": "growth at 10 µM", "setting": "M14", "result": 15, "unit": "%"}, {"measurement": "growth at 10 µM", "setting": "SK-MEL-28", "result": 22, "unit": "%"}, {"measurement": "growth at 10 µM", "setting": "SK-MEL-5", "result": -66, "unit": "%"}, {"measurement": "growth at 10 µM", "setting": "[15]", "result": -10, "unit": "%"}, {"measurement": "growth at 10 µM", "setting": "[16]", "result": 27, "unit": "%"}, {"measurement": "growth at 10 µM", "setting": "[17]", "result": 32, "unit": "%"}, {"measurement": "growth at 10 µM", "setting": "786-0", "result": -9, "unit": "%"}, {"measurement": "growth at 10 µM", "setting": "A498", "result": -35, "unit": "%"}, {"measurement": "growth at 10 µM", "setting": "ACHN", "result": 6, "unit": "%"}, {"measurement": "growth at 10 µM", "setting": "[18]", "result": 2, "unit": "%"}, {"measurement": "growth at 10 µM", "setting": "[19]", "result": -8, "unit": "%"}, {"measurement": "growth at 10 µM", "setting": "SN12C", "result": 6, "unit": "%"}, {"measurement": "growth at 10 µM", "setting": "[20]", "result": 16, "unit": "%"}, {"measurement": "growth at 10 µM", "setting": "MCF7", "result": 17, "unit": "%"}, {"measurement": "growth at 10 µM", "setting": "[21]", "result": 6, "unit": "%"}, {"measurement": "growth at 10 µM", "setting": "[22]", "result": 5, "unit": "%"}, {"measurement": "growth at 10 µM", "setting": "MDA-MB-468", "result": 5, "unit": "%"}]}
